Regarding `OCC1CCc2[nH]c3ccc(F)cc3c2C1` (configuration not stated), the melting point (commonly the temperature, or range, at which the solid turns liquid) was in the range of 107 to 109 °C.

In turn, `CCCn1nc2c(N)nc3ccccc3c2c1CCNC(=O)c1ccc(F)cc1` had a melting point of 198 to 199 °C. As for `CN(C)c1nn(-c2cc(F)c(C#N)cc2F)c(=O)n1C`, the melting point was in the range of 131 to 133 °C. Turning to `CC1(C)OCCC(=NO)c2ccccc2NC1=O`, the melting point was in the range of 205 to 206 °C. Under `CN1c2cscc2C(=O)N(Cc2ccccc2)c2ccccc21` stands 137 to 138 °C.

For the molecule `CCOC(=O)C1=CC(=O)CC(c2ccc(Cl)c(OC)c2F)N1` (configuration not stated), the melting point was 116 to 118 °C.

As to `O=C1OC(CO)CN1c1ccc(N2CC3CSCC3C2)c(F)c1` (configuration not stated), the melting point was 165 to 167 °C. In turn, `Nc1cccc(SCc2ccccc2)n1` came in with a melting point of 65 to 66 °C. Consider `CC(C)Cc1ccccc1-n1c(=O)[nH]c2c(C(N)=O)nc(-c3cccc(O)c3)nc21`, for which the melting point is more than 260 °C. Molecule `Clc1ccc2ccc(COc3ccc4c(c3)C(SCCc3nnn[nH]3)c3ccccc3CO4)nc2c1` (configuration not stated) came in with a melting point of 142 to 147 °C. Consider `C(=C\c1cc(/C=C/c2ccccc2-c2cccnc2)[nH]n1)/c1ccc2cc[nH]c2c1`, for which the melting point lay within 248 to 255 °C.

With `COc1ccc2c(c1)CCC1=C2CCC2(C)C(=O)CC=C12` (configuration not stated), the melting point fell in the range of 111 to 113 °C. Under `c1ccc2c(c1)OCC(CN1CCC(CNc3nc4cnccc4s3)CC1)O2` (configuration not stated) stands 147 °C; under `COC(=O)CC1(O)CC2CCC1(CS(=O)(=O)N1CCC3(C=Cc4ccccc43)CC1)C2(C)C` (configuration not stated), 81 to 83 °C; under `CC(C)(Oc1ccc(CC(=O)Nc2cc(Cl)cc(Cl)c2)cc1)C(=O)O`, 138 °C. Turning to `CNC(=O)C(=NOC)c1cccc(Cl)c1COc1ccc(Sc2ccc(C)cc2)cn1`, the melting point is 100 to 102 °C. `OCC1OC(n2ccnn2)C(O)C1O` (configuration not stated) returned a melting point of 123 to 125 °C. Under `Cc1ccc(Cc2cnc(NCC(O)COc3cccc(CN4CCCCC4)c3)[nH]c2=O)cn1` (configuration not stated) stands 115 to 117 °C. Under `CCOC(=O)c1c2n(c3c(Cl)c(F)c(F)cc3c1=O)C(C)S2` (configuration not stated) stands 191 to 194 °C. For the molecule `Cc1c(-c2cc(CO)c(Cl)cc2F)nn(C)c1C(F)(F)F`, the melting point worked out at 58 °C. Under `CCCCCCC[C@H]1CC[C@H](COc2ccc(O)cc2)CC1` stands 107 to 108 °C; under `C=Cc1ncc2c(c1COC)c1c(OCc3ccccc3)cccc1n2S(=O)(=O)c1ccc(C)cc1`, 141 to 143 °C; under `Cc1c(N2CCC(N)C2)c(F)cc2c(=O)c(C(=O)O)cn(C3CC3)c12` (configuration not stated), 187 to 190 °C. In turn, `O=C(Nc1n[nH]c2cc(Cl)ccc12)c1cc(Cl)cc(Cl)c1` showed a melting point of 240 °C. In turn, `COc1cc(C)nc(NC(=O)NS(=O)(=O)c2cccc3cccnc23)n1` had a melting point of 181 to 185 °C. Turning to `CC(C)(C)C(=O)Nc1ccc(Cl)cc1C1(O)CCN(C/C=C/c2ccc(Cl)cc2)CC1`, the melting point was in the range of 177 to 179 °C. Under `Cc1c(C2CCC(c3ccccc3)(N(C)C)CC2)[nH]c2ccc(C#N)cc12` (configuration not stated) stands 235 to 240 °C; under `CC(C)Oc1cc(-n2nc(C(F)(F)F)[nH]c2=O)c(Cl)cc1Cl`, 160 to 161 °C. Under `CC(=O)c1ccc(CCNS(=O)(=O)c2ccc(Br)cc2)cc1` stands 130 to 131 °C; under `CC(C)OC(=O)Nc1cccc(O)c1`, 75 to 77 °C; under `COc1ccc(CCNC[C@H](O)COc2ccc(-c3nc(Br)c[nH]3)cc2Cl)cc1OC`, 172 to 174 °C. `O=C(O)c1ccc(OCCCON=Cc2cn(Cc3ccccc3)c3ccccc23)c(-c2ccc(C(F)(F)F)cc2)c1`: the melting point lay within 193 to 194 °C. Under `COc1ccc(C2=CCCc3cc(OC)ccc32)cc1` stands 100 to 102 °C. Under `CCCn1nnc2c(Nc3ccc(C(C)C)cc3Br)nc(C)nc21` stands 80 to 81 °C.

Turning to `Cc1cc(C(=O)CBr)cn1S(=O)(=O)c1ccccc1`, the melting point was 86 to 88 °C. Under `O=S(=O)(c1ccc(O)c(-c2ccccc2)c1)c1ccc(O)c(-c2ccccc2)c1` stands 243 to 245 °C; under `CCOC(=O)CSc1nc(Cl)cc(Nc2cccc(C)c2C)n1`, 88 to 93 °C; under `COc1ccc(C=CC(=O)c2ccc(O)c(CC(=O)O)c2)cc1`, 247 °C. Under `COc1cc(C(C)C)c2c(c1)S(=O)(=O)N(COC(=O)c1sccc1C)C2=O` stands 132 to 134 °C. Molecule `CC1CC(=O)NN=C1c1ccc(NC(=O)CCNCC(O)COc2ccc(CCOCC3CC3)cc2)cc1` (configuration not stated) yielded a melting point of 54 to 56 °C.

Molecule `COC(=O)c1cc(C(=O)c2cccc(Cl)c2)n(C)c1` had a melting point of 127 °C. Under `CC(=O)OCCCOc1cccc2cc(C#N)c(=O)oc12` stands 132 to 135 °C. The value for `COc1cc(CNC(=O)c2nc3cnn(CCOc4ccc(C(=O)O)cc4)c3c(=O)[nH]2)ccc1F` was 228 to 230 °C; that for `CC(C)OC(=O)N1CCC(c2ccc3oc(-c4ccc(S(C)(=O)=O)cc4F)nc3c2)CC1` was 151 to 156 °C; that for `COc1ccc(C(=O)C2C(Cl)=CC=CC2(C)Cl)cc1Br` (configuration not stated) was 159 °C.

With `Cc1cc(NC(N)=O)cc(C)c1NC(=O)CN1CCN(CCCC(c2ccc(F)cc2)c2ccc(F)cc2)C(C(N)=O)C1` (configuration not stated), the melting point came to 142 °C. As for `CC(=O)NC[C@H]1CN(c2ccc(C3CCNCC3)cc2)C(=O)O1`, the melting point lay in the range of 146 to 148 °C. `O=C(/C=C/c1ccc2c(/C=C/C(=O)N3CCCC3)c[nH]c2c1)N1CCCC1`: the melting point was in the range of 268 to 270 °C. Regarding `COc1ccc([C@@H]2Sc3cc(Cc4ccc(F)cc4)ccc3NC(=O)[C@@H]2O)cc1`, the melting point lay within 216 to 218 °C. Under `O=C1CN2CCCCC2=NN1c1ccc(Cl)cc1Cl` stands 115 to 117 °C; under `Cc1cccc2c1NC(=O)C(CCCN1CCN(c3ccccc3F)CC1)S2` (configuration not stated), 121 to 123 °C; under `COc1ccc2cccc(C(CCO)CNC(=O)C3CCC3)c2c1` (configuration not stated), 113 to 115 °C.

With `COc1ccc(NC(=S)N2CCn3c(c(C(N)=O)c(Cl)c3-c3ccccc3)C2)cc1`, the melting point was 176 to 178 °C. Under `CSc1ncc(Br)c(N(C)NC(=O)c2c(Cl)cccc2Cl)n1` stands 254 to 256 °C; under `CCN(C(=O)NS(=O)(=O)c1ccccc1)c1ccc(Cl)cc1`, 145 to 146 °C; under `N#CC(=CNC1CC1)C(=O)c1ccc(Cl)cc1Cl`, 93 to 94 °C. For the molecule `COc1cc(N2CCOCC2)ccc1Nc1ncc2cc3ccccc3n2n1`, the melting point lay within 169 to 173 °C. The value for `Cc1cc(-n2ccnc2)c2cccc(OCc3c(Cl)ccc(S(=O)(=O)N4CCC[C@H]4C(=O)NCC4CCN(CCCC(=O)O)CC4)c3Cl)c2n1` was 178 °C; that for `CS(=O)(=O)c1nc2ncc(Cl)cc2s1` was 201 to 202 °C; that for `CCCc1nn(C)c(C(N)=O)c1NC(=O)c1cc2cccc(OCC)c2o1` was 219 to 221 °C. In turn, `CN(C(=O)CN1C(=O)c2ccccc2S1(=O)=O)c1ccccc1` displayed a melting point of 205 to 206 °C. The value for `CC(=O)NC[C@H]1CN(c2ccc(N3CCN(C(=S)CN)CC3)c(F)c2)C(=O)O1` was 202 to 204 °C; that for `O=C(NCCSCCNC(=O)c1cccc(Cl)c1)c1cccc(Cl)c1` was 150 to 152 °C.

`ON=C1CCN(CC2c3ccccc3CCc3ccccc32)CC1` registered a melting point of 199 to 202 °C.

`CC1(C)CC(C)(O)C2C3CCCCC3C2(C)C1` (configuration not stated) had a melting point of 76.6 to 77.4 °C. Under `CCn1nc(OCCCc2ccc(OCCOC)cc2Oc2ncc(C(F)(F)F)cc2Cl)cc1CCC(=O)O` stands 101 to 103 °C. As for `C=CCNC(=S)Nc1cc(=N)n2c(n1)SCCC2`, the melting point was 196 to 197 °C.

`Nc1nc(SCc2nc(C3CC3)no2)ncc1Cc1ccccc1` returned a melting point of 94 °C.

With `CC(=O)NC[C@H]1CN(c2cc(F)c3c(c2)CCCCC3=O)C(=O)O1`, the melting point is 151 to 152 °C.

On to `CN1CCN(C(=O)Nc2c(C(=O)c3ccccc3)[nH]c3cc(Cl)ccc23)CC1`, for which the melting point lay in the range of 168 to 170 °C. For `CC(C)(C)OC(=O)CONC(=O)c1ccc(C(=O)C(C)(C)C)cc1`, the melting point was 87 to 88 °C. Turning to `CC1CCCN(C(=O)C2Cc3ccc(F)cc3N2c2ccc(=O)n(C)n2)C1` (configuration not stated), the melting point lay within 219 to 222 °C. Regarding `OC(CNCCCCCCOCCCCc1ccccc1)c1cc(OCc2ccccc2)cc(OCc2ccccc2)c1` (configuration not stated), the melting point lay within 65 to 67 °C. `CCOc1nc(C)ccc1C#N` gave a melting point of 90 to 92 °C. The molecule `O=c1[nH]c2ccc(S(=O)CCN3CCC(Cc4ccc(F)cc4)CC3)cc2o1` (configuration not stated) registered a melting point of 202 to 204 °C. `N=C(N)Nc1nnc(-c2ccc([N+](=O)[O-])cc2)s1` showed a melting point of 295 to 297 °C. The value for `N#Cc1nn(-c2c(Cl)cc(C(F)(F)F)cc2Cl)cc1C1(C(F)(F)C(F)(F)C(F)(F)F)CC1` was 95 to 96 °C; that for `CN1C(=O)SCC1C(=O)NCCO[N+](=O)[O-]` (configuration not stated) was 105 to 106 °C. As for `COc1cc(Cl)cnc1OCC#Cc1cccc(OCC#N)n1`, the melting point is 118 °C.

Turning to `O=C1C(=O)c2ccc(-c3cccc(C(F)(F)F)c3)cc2C2=C1SCC1(CCNCC1)O2`, the melting point was 199 to 203 °C. Under `CCCCCCCCCCCCCCCC(=O)OC(CCCCCCCCCCCCCC)C(=O)O` (configuration not stated) stands 55 to 56 °C. Under `Cc1c2n(c(=O)c3cc(OC(=O)CN)cc(OC(=O)CN)c13)CCCC2` stands 163 to 164 °C. The value for `COc1ccc(Cl)c2nc(SCc3ccccc3)nn12` was 90 to 91 °C. In the case of `CCCCCOc1ccc(C(=O)Nc2ccc3cc(CN4CCCC4)cnc3c2C)cc1`, the melting point was determined as 155 °C.

On to `CC12CCC(Oc3c(F)c(F)c(C(F)(F)F)c(F)c3F)=CC1=CCC1C2CCC2(C)C(OS(=O)(=O)C(F)(F)F)=CCC12` (configuration not stated), for which the melting point was in the range of 106 to 107 °C.

Molecule `CCn1cc(C(=O)O)c(=O)c2cc(F)c(N3CCN(S(=O)(=O)c4ccc(Cl)cc4)CC3)c(F)c21` returned a melting point of 231 to 233 °C.

For the molecule `Cc1ccccc1Oc1cccc(C=O)c1O`, the melting point fell in the range of 56 to 58 °C.

The values above are taken from a melting point compilation (Tetko et al.; mined from patent text by program, amines drawn as free bases though some values may be those of a salt).
